Source: article PMC7594079, “Insights into the Function and Evolution of Taste 1 Receptor Gene Family in the Carnivore Fish Gilthead Seabream (Sparus aurata)” (International Journal of Molecular Sciences, 2020)

Tests used:
saT1R2a/R3 = target: T1, saT1R2a/R3 (Sparus aurata, UniProt A0A671TK95+A0A671VZB3); assay: saT1R2a/R3 heterodimer transiently transfected in stable pGL3-NFAT-luc-HEK293 (Cl.3) cells, luciferase reporter; type: cell-based; settings: for T1R2a/R3 [MSD] maximum stimulation dose: as molarity, decimal comma
T1 sequence (A0A671TK95 20-825): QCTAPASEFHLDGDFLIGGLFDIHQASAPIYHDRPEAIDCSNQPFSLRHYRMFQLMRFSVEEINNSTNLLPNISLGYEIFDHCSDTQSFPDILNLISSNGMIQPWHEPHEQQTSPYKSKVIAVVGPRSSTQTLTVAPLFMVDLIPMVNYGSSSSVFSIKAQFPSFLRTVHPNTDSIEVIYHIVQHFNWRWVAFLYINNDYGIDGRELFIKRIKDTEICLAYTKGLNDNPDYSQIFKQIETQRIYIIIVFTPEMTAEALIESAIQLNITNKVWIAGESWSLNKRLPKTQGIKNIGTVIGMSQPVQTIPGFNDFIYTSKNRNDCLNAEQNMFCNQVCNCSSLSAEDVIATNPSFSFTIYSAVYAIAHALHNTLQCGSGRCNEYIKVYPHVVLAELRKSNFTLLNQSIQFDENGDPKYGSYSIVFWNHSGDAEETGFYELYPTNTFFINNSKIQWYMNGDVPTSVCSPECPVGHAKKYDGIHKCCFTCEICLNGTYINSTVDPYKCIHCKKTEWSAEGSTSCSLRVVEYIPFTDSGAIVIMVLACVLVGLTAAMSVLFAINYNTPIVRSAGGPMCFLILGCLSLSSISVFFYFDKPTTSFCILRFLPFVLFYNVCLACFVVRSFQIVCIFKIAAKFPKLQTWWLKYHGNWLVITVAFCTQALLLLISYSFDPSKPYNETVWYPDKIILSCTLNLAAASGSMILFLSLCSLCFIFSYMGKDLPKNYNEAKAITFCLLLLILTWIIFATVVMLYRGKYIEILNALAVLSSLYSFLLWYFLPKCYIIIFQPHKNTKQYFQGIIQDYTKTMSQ
T1 sequence (A0A671VZB3 24-860): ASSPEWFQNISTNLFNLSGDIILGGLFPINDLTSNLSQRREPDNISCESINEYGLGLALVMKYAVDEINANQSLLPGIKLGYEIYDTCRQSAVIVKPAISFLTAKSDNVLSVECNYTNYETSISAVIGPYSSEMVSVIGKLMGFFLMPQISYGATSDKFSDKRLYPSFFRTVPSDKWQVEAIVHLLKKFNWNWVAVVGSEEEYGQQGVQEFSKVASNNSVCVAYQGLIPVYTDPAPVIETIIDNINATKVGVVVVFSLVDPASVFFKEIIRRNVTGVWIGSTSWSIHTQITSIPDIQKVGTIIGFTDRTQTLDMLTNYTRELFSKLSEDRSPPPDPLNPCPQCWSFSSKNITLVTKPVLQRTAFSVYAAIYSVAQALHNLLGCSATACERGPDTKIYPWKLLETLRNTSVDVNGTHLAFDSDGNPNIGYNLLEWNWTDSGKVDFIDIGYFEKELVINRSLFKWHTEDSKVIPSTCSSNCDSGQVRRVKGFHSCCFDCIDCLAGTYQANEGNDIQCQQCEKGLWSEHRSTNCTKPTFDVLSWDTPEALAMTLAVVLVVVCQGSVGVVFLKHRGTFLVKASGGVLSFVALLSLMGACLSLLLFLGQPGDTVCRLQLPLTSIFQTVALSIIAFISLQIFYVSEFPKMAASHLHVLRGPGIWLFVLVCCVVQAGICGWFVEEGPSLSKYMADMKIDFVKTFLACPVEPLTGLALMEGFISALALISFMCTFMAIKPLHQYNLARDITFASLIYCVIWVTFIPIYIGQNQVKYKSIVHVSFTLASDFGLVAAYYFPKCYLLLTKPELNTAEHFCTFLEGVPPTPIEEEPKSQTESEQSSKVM
Description: Figure 6 Amino acid Log-dose response curves of activation in heterologous co-transfected (Cl.3) cells with saT1R1/3 (green dots), saT1R2a/3 (red squares) and saT1R2b/3 (black triangles) heterodimers. Evaluation of L-AA responses was based on the RLU mean ± SEM of four independent determinations normalized to the mean response of the same transfections stimulated with reduced assay medium (Basal Medium Eagle w/o L-glutamate (BME) + 1% FBS), and expressed as the percentage relative to basal levels (BL).
HEK293 cells were cultured in standard medium DMEM (Gibco, Thermo Fisher, Saint Louis, MO, USA) containing 10% FBS, penicillin (100 U/mL) and streptomycin ([…]) at 37 °C, with a humidified atmosphere at 5% CO2. pGL3-NFAT-luc-HEK293 stable clones were generated by co-transfections of pGL3-NFAT-luc and tgCMV/HyTK plasmids (50:1), the latter harboring the hygromycin phosphotransferase gene, using Lipofectamine LTX according to supplier’s protocols (Thermo Fisher, Saint Louis, MO, USA). Initially, HEK293 cells were selected using DMEM containing 400 μg/mL hygromycin B (Sigma, Darmstadt, Germany) in 24-well plates for two weeks; 24 colonies were further grown out in 96-well plates under reduced hygromycin selection (200 µg/mL) for three weeks. Potentially resistant NFAT-luc-HEK293 clones (n = 22) were validated after incubation in assay medium (DMEM + 1% FBS) containing PMA or Ionomycin (Sigma, Darmstadt, Germany) for 18 h (triplicates, 50,000 cells/well). Luciferase activity was quantified with ONE-Glo™ EX Reagent Kit (Promega, Madison, WI, USA) using a 96-microplate TECAN reader (Trading AG, Switzerland).
(§1) saT1Rs (saT1R1, saT1R2a, saT1R2b saT1R3) and saGαi1-2 genes were RT-PCR amplified using 5’ and 3’ flanking primers carrying HindIII and XhoI restriction sites, respectively. Gel-purified fragments were cloned into pGEM-T Easy vectors, re-sequenced, digested and subcloned into pcDNA™3 (Invitrogen, Carlsbad, CA, USA). Effective saT1R cloning into pcDNA™3 was further verified by HindIII/XhoI digestion. Transient co-transfections were done in 6-well plates (confluence ~70–80%) using 100 μL of reduced serum medium (Opti-MEM, Gibco, Thermo Fisher, Saint Louis, MO, USA) containing 150 ng of each selected pcDNA™3 construct, 1:10 charge ratio of Enhanced Green Fluorescent expressing construct (EGFP; positive control), and pBluescript II SK (+) vector DNA (Addgene, Watertown, MA, USA) up to 1 µg of totally transfected DNA. Following 24 h incubation, cells were washed with fresh standard medium and plated in polylysine treated plates for additional 24 h. Cells were then stimulated with L-AAs and sugar compounds for 18 h in a reduced assay medium (BME w/o L-glutamate; Gibco, Thermo Fisher, Saint Louis, MO, USA) + 1% FBS), to prevent unspecific Ca^2+/NFAT signaling activation and potential saT1R desensitization. All L-AAs and sugars used for in vitro experiments were obtained from Merck KGaA (Darmstadt, Germany).

[1] = system: saT1R1/R3, saT1R2a/R3 and saT1R2b/R3; assay: Screen of 20 L-AAs for dose-response activation of the three saT1R heterodimers in Cl.3 cells; type: cell-based, Sparus aurata; settings: up to eight concentrations, 10 nM to 100 mM
Method: as §1

Compound | T1R2a/R3 [MSD] maximum stimulation dose (saT1R2a/R3) | dose-response activation for at least one of the three saT1R heterodimers [1] | concentration with significant activation (saT1R2a/R3; saT1R2a/R3, tested 1–500 mM) [mM]
C[C@H](N)C(=O)O [Ala, Alanine] | 1,00 × 10^-1 M | generated a dose-response activation | 
N=C(N)NCCC[C@H](N)C(=O)O [Arg, Arginine] | 1,00 × 10^-5 M | did not respond in a dose-response manner | 
NC(=O)C[C@H](N)C(=O)O [Asn, Asparagine] | 1,00 × 10^-1 M | did not respond in a dose-response manner | 
N[C@@H](CC(=O)O)C(=O)O [Asp, Aspartic acid] | 1,00 × 10^-5 M | did not respond in a dose-response manner | 
N[C@@H](CS)C(=O)O [Cys, Cysteine] | 1,00 × 10^-4 M | did not respond in a dose-response manner | 
OC[C@H]1OC(O)[C@H](O)[C@@H](O)[C@@H]1O (stereo partly drawn) [D-Glucose] |  |  | 200
NC(=O)CC[C@H](N)C(=O)O [Gln, Glutamine] | 1,00 × 10^-1 M | generated a dose-response activation | 
N[C@@H](CCC(=O)O)C(=O)O [Glu, Glutamic acid] | 1,00 × 10^-2 M | generated a dose-response activation | 
NCC(=O)O [Gly, Glycine] | 1,00 × 10^-1 M | generated a dose-response activation | 
N[C@@H](Cc1c[nH]cn1)C(=O)O [His, Histidine] | 1,00 × 10^-5 M | did not respond in a dose-response manner | 
CC[C@H](C)[C@H](N)C(=O)O [Ile, Isoleucine] | 1,00 × 10^-1 M | generated a dose-response activation | 
CC(C)C[C@H](N)C(=O)O [Leu, Leucine] | 1,00 × 10^-1 M | generated a dose-response activation | 
NCCCC[C@H](N)C(=O)O [Lys, Lysine] | 1,00 × 10^-3 M | did not respond in a dose-response manner | 
CSCC[C@H](N)C(=O)O [Met, Methionine] | 1,00 × 10^-1 M | generated a dose-response activation | 
N[C@@H](Cc1ccccc1)C(=O)O [Phe, Phenylalanine] | 1,00 × 10^-2 M | did not respond in a dose-response manner | 
O=C(O)[C@@H]1CCCN1 [Pro, Proline] | 1,00 × 10^-1 M | generated a dose-response activation | 
N[C@@H](CO)C(=O)O [Ser, Serine] | 1,00 × 10^-1 M | generated a dose-response activation | 
C[C@@H](O)[C@H](N)C(=O)O [Thr, Threonine] | 1,00 × 10^-1 M | generated a dose-response activation | 
N[C@@H](Cc1c[nH]c2ccccc12)C(=O)O [Trp, Tryptophan] | 1,00 × 10^-3 M | did not respond in a dose-response manner | 
N[C@@H](Cc1ccc(O)cc1)C(=O)O [Tyr, Tyrosine] | 1,00 × 10^-3 M | did not respond in a dose-response manner | 
CC(C)[C@H](N)C(=O)O [Val, Valine] | 1,00 × 10^-1 M | generated a dose-response activation | 
